Changes are numbered by the printed parent chain.
How the values were obtained:
[1] = biological target: T1, AR T877A (Homo sapiens, UniProt P10275, T878A); assay: Competitive binding assay, [3H]DHT, transfected COS-7 cells, AR T877A; design: expressed in transfected cells; host or cells: COS-7; conditions: 14 nM [3H]-DHT, read-out: Binding affinity (Ki), AR T877A
T1 sequence (P10275 1-920 T878A): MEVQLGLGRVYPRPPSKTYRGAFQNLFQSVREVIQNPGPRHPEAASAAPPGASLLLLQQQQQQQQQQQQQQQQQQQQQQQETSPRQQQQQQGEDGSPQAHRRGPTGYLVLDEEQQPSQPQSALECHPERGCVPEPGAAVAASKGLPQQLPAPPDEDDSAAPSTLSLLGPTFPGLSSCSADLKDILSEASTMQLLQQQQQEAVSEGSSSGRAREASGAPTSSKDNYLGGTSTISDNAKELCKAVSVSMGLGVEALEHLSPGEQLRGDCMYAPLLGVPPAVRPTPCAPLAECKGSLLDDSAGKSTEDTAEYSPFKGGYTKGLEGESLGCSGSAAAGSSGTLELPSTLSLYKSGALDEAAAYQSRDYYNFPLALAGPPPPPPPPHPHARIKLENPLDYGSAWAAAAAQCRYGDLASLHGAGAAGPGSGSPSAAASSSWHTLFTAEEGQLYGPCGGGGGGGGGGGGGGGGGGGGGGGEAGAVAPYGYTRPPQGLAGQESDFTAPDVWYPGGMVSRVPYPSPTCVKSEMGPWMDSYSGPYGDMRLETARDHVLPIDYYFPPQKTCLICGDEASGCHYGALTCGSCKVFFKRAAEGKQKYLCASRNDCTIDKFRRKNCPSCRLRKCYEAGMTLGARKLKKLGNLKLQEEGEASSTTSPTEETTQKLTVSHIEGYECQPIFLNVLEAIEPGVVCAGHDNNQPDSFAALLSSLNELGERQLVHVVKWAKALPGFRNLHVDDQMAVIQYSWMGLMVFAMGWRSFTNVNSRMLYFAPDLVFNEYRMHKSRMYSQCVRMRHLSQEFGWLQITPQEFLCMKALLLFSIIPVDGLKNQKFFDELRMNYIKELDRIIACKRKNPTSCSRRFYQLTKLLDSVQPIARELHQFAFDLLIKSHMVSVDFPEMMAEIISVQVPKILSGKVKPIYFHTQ
Description: Twenty-four hours prior to transfection, COS-7 cells were seeded at a density of 70,000 cells per well in 24-well cell culture plates and grown in phenol red free Dulbecco's Modified Eagle Medium (DMEM) supplement with 10% cosmic calf serum (CCS). The cells were transfected with a prokaryotic expression vector encoding the wild-type androgen receptor or mutant androgen receptor using Lipofectamine (Invitrogen) following manufacturer's protocol. […] Cells were washed with PBS and harvested in 2% SDS, 10% glycerol, and 10 mM Tris, pH 6.8, and radioactivity determined by scintillation counting.

[2] = biological target: T2, AR W741C (Homo sapiens, UniProt P10275, W742C); assay: Transcription assay (ARE-luciferase reporter) in CV-1 cells, AR W741C; assay type: cell-based; design: expressed in transfected cells; host or cells: CV-1; conditions: for Antagonist efficacy (RLU value at IC50), AR W741C: in competition with 200 nM DHT
T2 sequence (P10275 1-920 W742C): T1 sequence (P10275 1-920 T878A) with W742C, A878T
Description: Twenty-four hours prior to transfection, CV-1 cells were seeded at a density of 45,000 cells per well in 24-well cell culture plates and grown in phenol red free Dulbecco's Modified Eagle Medium (DMEM) supplemented with 10% cosmic calf serum (COS). ARE-luciferase reporter and Renilla-Luc as the internal standard and a prokaryotic expression vector encoding the wild-type androgen receptor or mutant androgen receptor were transfected with Lipofectamine (Invitrogen) following manufacturer's protocol. Five hours after transfection, media was added containing the appropriate concentrations of ligands. The cells were allowed to incubate for 38 hours before harvesting by passive lysis buffer. Cell extracts were immediately assayed using the Dual Luciferase Assay (Promega) with a Perkin-Elmer Microbeta Luminometer. […] Dose-response data was analyzed by nonlinear regression analysis using GraphPad Prism.

SMILES	Ki [1] [µM]	IC50 [2] [µM]	Antagonist efficacy (RLU value at IC50), AR W741C [2]
CN(C)CCCOc1cccc(Cc2ccccc2S(=O)(=O)CC(C)(O)C(=O)Nc2ccc(C#N)c(C(F)(F)F)c2)c1 (centres unmarked) [PAN22]	1.75	5.6 ± 0.8	(53% ± 2.1%)
CC(O)(CS(=O)(=O)c1ccccc1-c1ccccc1O)C(=O)Nc1ccc(C#N)c(C(F)(F)F)c1 (centres unmarked) [PAN41, N-(4-cyano-3-(trifluoromethyl)phenyl)-2-hydroxy-3-(2′-hydroxybiphenyl-2-ylsulfonyl)-2-methylpropanamide]	–	8 ± 2.6	(50% ± 1.0%)
CN(C)CCCOc1cccc(-c2ccccc2S(=O)(=O)CC(C)(O)C(=O)Nc2ccc(C#N)c(C(F)(F)F)c2)c1 (centres unmarked) [PAN52]	4.13	5.9 ± 2.5	(50% ± 1.0%)
CN(C)CCCOc1ccc(-c2ccccc2S(=O)(=O)CC(C)(O)C(=O)Nc2ccc(C#N)c(C(F)(F)F)c2)cc1 (centres unmarked) [PAN62]	4.3	15 ± 17	(56% ± 5.7%)
